In brackets after ≈: the same amount, converted by molar mass. Several values for one entry are separate records, joined by “and”; a condition that tells them apart may be missing. Equal values may be shown once.
Assays:
E. coli [1] = experiment: Checkerboard combination assay with Ciprofloxacin; type: cell-based
[2] = test system: S. epidermidis (MDR00223); experiment: MIC and MBC by broth microdilution; type: cell-based, Staphylococcus epidermidis
S. aureus biofilm = experiment: Staphylococcus biofilm mass reduction; type: cell-based; conditions: at their MIC
[3] = In vitro cytotoxicity on normal cell line; type: cell-based, green monkey; conditions: green monkey, Vero kidney cells
[4] = test system: Vero: green monkey kidney; experiment: In vitro cytotoxicity on normal cell line; type: cell-based
A. baumannii [5] = experiment: Single-step resistance selection; type: cell-based; conditions: 4 × MIC, 48 h
K. pneumoniae [6] = experiment: Checkerboard combination assay with Ciprofloxacin; type: cell-based
[7] = In vitro cytotoxicity on normal cell line; type: cell-based, mouse; conditions: mouse, BNL normal liver cells
[8] = test system: BNL: mouse normal liver cells; experiment: In vitro cytotoxicity on normal cell line; type: cell-based
S. aureus (MDR00231) [9] = experiment: MIC and MBC by broth microdilution; type: cell-based, Staphylococcus aureus
C. albicans100 [10] = experiment: Checkerboard combination assay with Ketoconazole; type: cell-based, Candida albicans
[11] = test system: C. albicans200 (MDR00200); experiment: Agar well-diffusion antimicrobial sensitivity assay; type: cell-based, Candida albicans; conditions: Candida albicans, read-out: Inhibition Zone (IZ)
S. aureus (MDR00231) [12] = experiment: as above; type: cell-based, Staphylococcus aureus; conditions: Staphylococcus aureus, read-out: Inhibition Zone (IZ)
[13] = In vitro cytotoxicity on normal cell line; type: cell-based, rat; conditions: rat, H9C2 heart/myocardium cells
[14] = test system: H9C2: rat heart/myocardium; experiment: In vitro cytotoxicity on normal cell line; type: cell-based
S. epidermidis [15] = experiment: Checkerboard combination assay with Ciprofloxacin; type: cell-based, Staphylococcus epidermidis
[16] = test system: C. albicans100 (MDR00100); experiment: MIC and MFC by broth microdilution; type: cell-based, Candida albicans
[17] = test system: S. epidermidis (MDR00223); experiment: Agar well-diffusion antimicrobial sensitivity assay; type: cell-based, Staphylococcus epidermidis; conditions: Staphylococcus epidermidis, read-out: Inhibition Zone (IZ)
B. subtilis [18] = experiment: Single-step resistance selection; type: cell-based; conditions: 4 × MIC, 48 h
S. aureus [19] = experiment: Single-step resistance selection; type: cell-based, Staphylococcus aureus; conditions: 4 × MIC, 48 h
C. albicans100 [20] = experiment: Single-step resistance selection; type: cell-based, Candida albicans; conditions: 4 × MIC, 48 h
RBCs = experiment: Hemolytic assay; type: cell-based; conditions: human RBCs; compounds 1.0 mg/mL; Triton X-100 0.1% v/v; 37 °C, 35 min
K. pneumoniae [21] = experiment: Single-step resistance selection; type: cell-based; conditions: 4 × MIC, 48 h
E. coli DNA gyrase = E. coli DNA gyrase (Escherichia coli, UniProt P0AES4+P0AES6); experiment: DNA gyrase inhibition; type: biochemical
Sequence of E. coli DNA gyrase (P0AES4 whole entry, one chain of several): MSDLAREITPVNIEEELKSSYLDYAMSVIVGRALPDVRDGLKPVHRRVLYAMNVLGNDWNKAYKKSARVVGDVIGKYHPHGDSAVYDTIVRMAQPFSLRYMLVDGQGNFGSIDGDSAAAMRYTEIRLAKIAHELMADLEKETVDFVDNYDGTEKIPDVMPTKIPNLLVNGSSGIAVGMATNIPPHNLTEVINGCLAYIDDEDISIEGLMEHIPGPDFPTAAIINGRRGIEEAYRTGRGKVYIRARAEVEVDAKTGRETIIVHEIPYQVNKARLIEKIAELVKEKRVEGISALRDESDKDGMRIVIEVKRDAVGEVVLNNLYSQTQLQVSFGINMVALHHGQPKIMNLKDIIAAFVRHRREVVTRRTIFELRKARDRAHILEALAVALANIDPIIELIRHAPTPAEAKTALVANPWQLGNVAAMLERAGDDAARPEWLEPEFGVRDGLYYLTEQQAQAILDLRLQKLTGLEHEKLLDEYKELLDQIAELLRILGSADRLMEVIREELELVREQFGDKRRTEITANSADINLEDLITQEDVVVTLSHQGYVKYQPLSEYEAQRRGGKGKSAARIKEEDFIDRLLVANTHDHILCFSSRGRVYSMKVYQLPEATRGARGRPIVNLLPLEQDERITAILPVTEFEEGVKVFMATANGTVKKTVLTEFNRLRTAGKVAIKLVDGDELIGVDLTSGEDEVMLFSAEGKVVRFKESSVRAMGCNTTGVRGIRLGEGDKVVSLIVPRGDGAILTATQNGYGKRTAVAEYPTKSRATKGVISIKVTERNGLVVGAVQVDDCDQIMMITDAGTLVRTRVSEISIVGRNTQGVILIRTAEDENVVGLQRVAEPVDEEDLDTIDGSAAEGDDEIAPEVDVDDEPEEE

A. baumannii (MDR00521) = experiment: MIC and MBC by broth microdilution; type: cell-based
C. albicans200 [22] = experiment: Checkerboard combination assay with Ketoconazole; type: cell-based, Candida albicans
E. coli (MDR00501) [23] = experiment: Agar well-diffusion antimicrobial sensitivity assay; type: cell-based; conditions: Escherichia coli, read-out: Inhibition Zone (IZ)
C. albicans200 [24] = experiment: Single-step resistance selection; type: cell-based, Candida albicans; conditions: 4 × MIC, 48 h
S. epidermidis biofilm = experiment: Staphylococcus biofilm mass reduction; type: cell-based; conditions: at their MIC
K. pneumoniae (MDR00244) = experiment: MIC and MBC by broth microdilution; type: cell-based; conditions: ratio in parentheses
S. epidermidis [25] = experiment: Single-step resistance selection; type: cell-based, Staphylococcus epidermidis; conditions: 4 × MIC, 48 h
S. aureus [26] = experiment: Checkerboard combination assay with Ciprofloxacin; type: cell-based, Staphylococcus aureus
[27] = target: T1, dihydrofolate reductase (DHFR) (Homo sapiens, UniProt P00374); experiment: DHFR inhibition; type: biochemical
T1 sequence (P00374 1-187): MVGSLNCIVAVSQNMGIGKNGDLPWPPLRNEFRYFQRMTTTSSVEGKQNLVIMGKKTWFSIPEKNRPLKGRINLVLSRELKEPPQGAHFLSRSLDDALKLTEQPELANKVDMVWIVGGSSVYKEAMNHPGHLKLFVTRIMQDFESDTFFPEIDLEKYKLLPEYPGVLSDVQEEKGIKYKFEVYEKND

B. subtilis (MDR00423) = experiment: MIC and MBC by broth microdilution; type: cell-based
E. coli (MDR00501) [28] = experiment: MIC and MBC by broth microdilution; type: cell-based
E. coli [29] = experiment: Single-step resistance selection; type: cell-based; conditions: 4 × MIC, 48 h
A. baumannii [30] = experiment: Checkerboard combination assay with Ciprofloxacin; type: cell-based
[31] = test system: C. albicans200 (MDR00200); experiment: MIC and MFC by broth microdilution; type: cell-based, Candida albicans
B. subtilis [32] = experiment: Checkerboard combination assay with Ciprofloxacin; type: cell-based
[33] = test system: C. albicans100 (MDR00100); experiment: Agar well-diffusion antimicrobial sensitivity assay; type: cell-based, Candida albicans; conditions: Candida albicans, read-out: Inhibition Zone (IZ)

For `N#CC(=Cc1cn(-c2ccccc2)nc1-c1ccccc1)C1=NC(=O)CS1` [Compound 4a, 3-(1,3-Diphenyl-1H-pyrazol-4-yl)-2-(4-oxo-4,5-dihydrothiazol-2-yl)acrylonitrile], the combination effect (E. coli [1]) was “S (S: synergism)”, the “fractional inhibitory concentration index (FICI)” value (E. coli [1]) was 0.25 and the MBC/MIC ([2]; S. epidermidis, ratio in parentheses) was 1. The MIC ([2]; Staphylococcus epidermidis, read-out: MIC (mean ± SEM), S. epidermidis, broth microdilution) was 0.48 ± 0.2 µg/mL (≈ 1.3 µM), the “reduction of biofilm formation” value (S. aureus biofilm) was 74.3% and the IC50 at 72 h [3] was 86.9 ± 0.97 µM. For the same compound, the “Selectivity index against DHFR” value ([4]; IC50 of Vero / IC50 of DHFR) was 88.70, the “Selectivity index against DNA gyrase” value ([4]; IC50 of Vero / IC50 of DNA gyrase) was 4.76 and the “Single-step resistance frequency (mutation frequency)” value (shortened to “Single-step resistance frequency”) (A. baumannii [5]) was 1.00 × 10^–9. For the same compound, the combination effect (K. pneumoniae [6]) was “S (S: synergism)”, the “fractional inhibitory concentration index (FICI)” value (K. pneumoniae [6]) was 0.5 and the IC50 at 72 h [7] was 99.4 ± 1.04 µM. For the same compound, the “Selectivity index against DHFR” value ([8]; IC50 of BNL / IC50 of DHFR) was 101.44, the “Selectivity index against DNA gyrase” value ([8]; IC50 of BNL / IC50 of DNA gyrase) was 5.44 and the MBC/MIC (S. aureus (MDR00231) [9]; S. aureus, ratio in parentheses) was 0.5. For the same compound, the MIC (S. aureus (MDR00231) [9]; Staphylococcus aureus, read-out: MIC (mean ± SEM), S. aureus, broth microdilution) was 0.43 ± 0.4 µg/mL (≈ 1.16 µM), the combination effect (C. albicans100 [10]) was “S (S: synergism)” and the “fractional inhibitory concentration index (FICI)” value (C. albicans100 [10]) was 0.5. The zone of inhibition at 100000 µg/mL [11] was 31 ± 0.22 mm, the zone of inhibition at 100000 µg/mL (S. aureus (MDR00231) [12]) was 31 ± 0.18 mm and the IC50 at 72 h [13] was 103 ± 1.5 µM. For the same compound, the “Selectivity index against DHFR” value ([14]; IC50 of H9C2 / IC50 of DHFR) was 105.40, the “Selectivity index against DNA gyrase” value ([14]; IC50 of H9C2 / IC50 of DNA gyrase) was 5.66 and the combination effect (S. epidermidis [15]) was “S (S: synergism)”. The “fractional inhibitory concentration index (FICI)” value (S. epidermidis [15]) was 0.5, the “MIC (mean ± SEM)” value ([16]; C. albicans100, broth microdilution) was 0.45 ± 0.3 µg/mL (≈ 1.21 µM) and the MFC/MIC ([16]; C. albicans100, ratio in parentheses) was 1. For the same compound, the MIC ([16]; Candida albicans, read-out: MIC (mean ± SEM), C. albicans100, broth microdilution) was 0.45 µg/mL (≈ 1.21 µM), the zone of inhibition at 100000 µg/mL [17] was 28 ± 0.13 mm and the “Single-step resistance frequency” value (B. subtilis [18]) was 2.20 × 10^–8. For the same compound, the “Single-step resistance frequency” value (S. aureus [19]) was 1.61 × 10^–7, the “Single-step resistance frequency” value (C. albicans100 [20]) was 1.40 × 10^–8 and the “%lysis of RBCs” value (RBCs) was 7.55% and 7.55 ± 0.63%. The “Single-step resistance frequency” value (K. pneumoniae [21]) was 1.54 × 10^–9, the IC50 (E. coli DNA gyrase) was 18.2 ± 0.67 µM and the “MIC (mean ± SEM)” value (A. baumannii (MDR00521); broth microdilution) was 0.44 ± 0.3 µg/mL (≈ 1.19 µM). The MBC/MIC (A. baumannii (MDR00521); ratio in parentheses) was 1, the combination effect (C. albicans200 [22]) was “S (S: synergism)” and the “fractional inhibitory concentration index (FICI)” value (C. albicans200 [22]) was 0.5. The zone of inhibition at 100000 µg/mL (E. coli (MDR00501) [23]) was 26 ± 0.33 mm, the “Single-step resistance frequency” value (C. albicans200 [24]) was 1.58 × 10^–7 and the “reduction of biofilm formation” value (S. epidermidis biofilm) was 64.8%. The MBC/MIC (K. pneumoniae (MDR00244)) was 0.5, the “Single-step resistance frequency” value (S. epidermidis [25]) was 2.43 × 10^–7 and the combination effect (S. aureus [26]) was “S (S: synergism)”. For the same compound, the “fractional inhibitory concentration index (FICI)” value (S. aureus [26]) was 0.25, the IC50 [27] was 0.98 ± 0.11 µM and the MBC/MIC (B. subtilis (MDR00423); B. subtilis, ratio in parentheses) was 0.5. The MIC (B. subtilis (MDR00423); Bacillus subtilis, read-out: MIC (mean ± SEM), B. subtilis, broth microdilution) was 0.45 ± 0.5 µg/mL (≈ 1.21 µM), the “MIC (mean ± SEM)” value (E. coli (MDR00501) [28]; E. coli, broth microdilution) was 0.45 ± 0.2 µg/mL (≈ 1.21 µM) and the MBC/MIC (E. coli (MDR00501) [28]; E. coli, ratio in parentheses) was 0.5. For the same compound, the MIC (E. coli (MDR00501) [28]; Escherichia coli, read-out: MIC (mean ± SEM), E. coli, broth microdilution) was 0.45 µg/mL (≈ 1.21 µM), the “Single-step resistance frequency” value (E. coli [29]) was 1.20 × 10^–9 and the combination effect (A. baumannii [30]) was “S (S: synergism)”. The “fractional inhibitory concentration index (FICI)” value (A. baumannii [30]) was 0.25, the “MIC (mean ± SEM)” value ([31]; C. albicans200, broth microdilution) was 0.22 ± 0.2 µg/mL (≈ 0.594 µM) and the MFC/MIC ([31]; C. albicans200, ratio in parentheses) was 0.5. The MIC ([31]; Candida albicans, read-out: MIC (mean ± SEM), C. albicans200, broth microdilution) was 0.22 µg/mL (≈ 0.594 µM), the combination effect (B. subtilis [32]) was “S (S: synergism)” and the “fractional inhibitory concentration index (FICI)” value (B. subtilis [32]) was 0.5. The zone of inhibition at 100000 µg/mL [33] was 29 ± 0.23 mm.
